The structures appear in SMILES notation.

3 molecules from patent US4927820A, “Fused heterocyclic derivatives of 1,2,3,4-tetrahydroacridine” (priority 1988, dated 1990) can be followed below.

For one test, the target named is acetylcholinesterase (Homo sapiens, UniProt P22303). Put plainly: Cholinesterase inhibition assay (photometric method of Ellman et al.). The test is classed as biochemical. On the technique in general: Ellman's reagent forms a yellow product with free thiols.
Test [1] relates to scopolamine induced memory deficit in mice. In words: Dark Avoidance Assay (reversal of scopolamine induced memory deficit). The test is classed as in vivo. The conditions noted are these: retest 24 hours later. As for the experimental part:
This utility can also be ascertained by determining the ability of these compounds to restore cholinergically deficient memory in the Dark Avoidance Assay. In this assay mice are tested for their ability to remember an unpleasant stimulus for a period of 24 hours. A mouse is placed in a chamber that contains a dark compartment; a strong incadescent light drives it to the dark compartment, where an electric shock is administered through metal plates on the floor. The animal is removed from the testing apparatus and tested again, 24 hours later, for the ability to remember the electric shock.
If scopolamine, an anticholinergic that is known to cause memory impairment, is administered before an animal's initial exposure to the test chamber, the animal re-enters the dark compartment shortly after being placed in the test chamber 24 hours later. This effect of scopolamine is blocked by an active test compound, resulting in a greater interval before re-entry into the dark compartment.
The results for an active compound are expressed as the percent of a group of animals in which the effect of scopolamine is blocked, as manifested by an increased interval between being placed in the test chamber and re-entering the dark compartment.

Sequence of acetylcholinesterase (P22303 32-614): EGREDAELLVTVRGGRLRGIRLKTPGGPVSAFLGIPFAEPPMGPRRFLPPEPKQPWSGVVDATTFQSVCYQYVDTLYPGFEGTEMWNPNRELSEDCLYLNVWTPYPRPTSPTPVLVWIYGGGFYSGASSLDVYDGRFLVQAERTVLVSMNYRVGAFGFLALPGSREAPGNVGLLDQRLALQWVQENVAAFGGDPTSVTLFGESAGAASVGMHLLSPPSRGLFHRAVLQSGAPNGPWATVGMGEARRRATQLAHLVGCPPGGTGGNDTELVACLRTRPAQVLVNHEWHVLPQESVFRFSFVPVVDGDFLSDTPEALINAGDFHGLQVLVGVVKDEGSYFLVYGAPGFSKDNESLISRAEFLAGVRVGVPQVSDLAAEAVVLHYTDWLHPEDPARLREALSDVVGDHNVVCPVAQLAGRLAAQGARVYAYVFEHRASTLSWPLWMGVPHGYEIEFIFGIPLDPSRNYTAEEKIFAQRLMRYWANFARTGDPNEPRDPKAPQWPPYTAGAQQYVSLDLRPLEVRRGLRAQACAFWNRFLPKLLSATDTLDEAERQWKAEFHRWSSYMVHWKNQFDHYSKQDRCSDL

On to `Fc1ccc(C2Nc3c4c(nc5ccccc35)CCCC4O2)cc1` (stereo not shown) [2-(4-Fluorophenyl)-1,2,3a,4,5,6-hexahydro[1,3]oxazino[6,5,4-kl]acridine], for which, on acetylcholinesterase, the IC50 turned out to be 21 µM.

As for `c1ccc(C2Nc3c4c(nc5ccccc35)CCCC4O2)cc1` (stereo not shown) [2-Phenyl-1,2,3a,4,5,6-hexahydro[1,3]oxazino[6,5,4-kl]acridine], the “% of animals with scopolamine induced memory deficit reversal” value in test [1] (dose 5.0 mg/kg body weight) stood at 27%. The IC50 at acetylcholinesterase came out at 36 µM.

On to `CNC(=O)Oc1ccc2c(c1)[C@]1(C)CCN(C)[C@@H]1N2C` [Physostigmine, reference compound], for which the “% of animals with scopolamine induced memory deficit reversal” value in test [1] (dose 0.31 mg/kg body weight, reference) is on record as 20%.

Usually IC50 stands for the point on the concentration scale where inhibition reaches its midpoint.
